The supplement of paper PMC12613149

Assays:
[1] = collision cross section (TIMS, N2 drift gas) of the primary ion; higher = larger gas-phase ion size
[2] = reversed-phase LC retention time (C18, 15 min MeOH gradient); higher = more hydrophobic / later elution
[3] = ionization mode: ESI+, ion species: [M+H]+
[4] = ionization mode: ESI-, ion species: [M-H]-
[5] = ionization mode: ESI+, ion species: [M]+

collision cross section [1, 3]	collision cross section [1, 4]	reversed-phase LC retention time [2, 3]	reversed-phase LC retention time [2, 4]	collision cross section [1, 5]	reversed-phase LC retention time [2, 5]	Compound
217.59 Å²	214.51 Å²	15.2 min	15.7 min			C[C@@H]1C[C@H]2[C@@H]3CCC4=CC(=O)C=C[C@]4(C)[C@@]3(Cl)[C@@H](O)C[C@]2(C)[C@@]1(OC(=O)c1ccco1)C(=O)CCl [Mometasone fuorate]
	196.67 Å²		18.8 min			Cc1cc(Cc2cc(C)cc(C(C)(C)C)c2O)c(O)c(C(C)(C)C)c1 [2,2'-Methylenebis(6-tert-butyl-p-cresol)]
	204.77 Å²		19.3 min			CCc1cc(Cc2cc(CC)cc(C(C)(C)C)c2O)c(O)c(C(C)(C)C)c1 [2,2'-Methylenebis(4-ethyl-6-t-butylphenol)]
	174.98 Å²		8.22 min			OCC1OC(OC2(CCl)OC(CCl)C(O)C2O)C(O)C(O)C1Cl (stereo not drawn) [Sucralose]
	154.35 Å²		7.02 min			N#Cc1c(Cl)c(Cl)c(S(=O)(=O)O)c(C(N)=O)c1Cl [2-Amido-3,5,6-trichloro-4-cyanobenzenesulfonic acid]
155.89 Å²	159.96 Å²	17.1 min	10.7 min			O=C(O)c1ccccc1C(=O)OCc1ccccc1 [Monobenzyl phthalate]
224 Å²		19.6 min				CC(CCOC(=O)c1ccccc1C(=O)OCCC(C)CC(C)(C)C)CC(C)(C)C (stereo not drawn) [Di-isononyl phthalate]
	125.05 Å²		2.42 min			O=S(=O)(O)c1ccccc1 [Benzenesulfonic acid]
201.99 Å²	206.67 Å²	12.7 min	9.27 min			COC(=O)c1ccc(CNS(C)(=O)=O)cc1S(=O)(=O)NC(=O)Nc1nc(OC)cc(OC)n1 [Mesosulfuron-methyl]
	161.38 Å²		17.9 min			CC(C)CC(C)CC(C)c1ccc(O)cc1 (stereo not drawn) [Nonylphenol_isomers]
	198.1 Å²		13.7 min			CC(=O)OCC(=O)[C@@]1(O)CC[C@H]2[C@@H]3CCC4=CC(=O)CC[C@]4(C)[C@H]3[C@@H](O)C[C@@]21C [Hydrocortisonacetate]
159.21 Å²	161.99 Å²	15.3 min	13.3 min			O=C(O)Cc1ccccc1Nc1c(Cl)cccc1Cl [Diclofenac]
153.65 Å²	154.96 Å²	9.66 min	9.81 min			COc1ccc2[nH]cc(CCNC(C)=O)c2c1 [Melatonin]
200.01 Å²		19.6 min				CCCCCCCC/C=C\CCCCCCCCCCCC(N)=O [Erucamide]
152.13 Å²		9.65 min				NC(N)=NC(=O)Cc1c(Cl)cccc1Cl [Guanfacine]
	159.61 Å²		14.9 min			CCCCCCCCCCOS(=O)(=O)O [Decylsulfate]

collision cross section [1, 3]	collision cross section [1, 4]	reversed-phase LC retention time [2, 3]	reversed-phase LC retention time [2, 4]	collision cross section [1, 5]	reversed-phase LC retention time [2, 5]	Compound
193.4 Å²		7.75 min				CCN1CCCC1CNC(=O)c1cc(S(=O)(=O)CC)c(N)cc1OC (stereo not drawn) [Amisulpride]
208.58 Å²	214.7 Å²	14.8 min	14 min			COc1ccc(Cl)cc1C(=O)NCCc1ccc(S(=O)(=O)NC(=O)NC2CCCCC2)cc1 [Glibenclamide]
128.9 Å²		6.89 min				Cc1cc(N)c2ccccc2n1 [4-Amino-2-methylquinoline]
	115.69 Å²		6.79 min			O=c1[nH]nc(C(F)(F)F)s1 [Thiadone]
146.21 Å²	134.15 Å²	12.2 min	12.4 min			NC(=O)Nc1ccc(Cl)c(Cl)c1 [3,4-Dichlorophenylurea]
185.09 Å²		11.3 min				CC(C)(C#N)c1cc(Cn2cncn2)cc(C(C)(C)C#N)c1 [Anastrozole]
				211.12 Å²	16.3 min	CC(C)(C)CC(C)(C)c1ccc(OCCOCC[N+](C)(C)Cc2ccccc2)cc1 [Benzethonium]
143.6 Å²		8.4 min				Nc1ccc2nc3c(N)cccc3nc2c1 [1,7-Diaminophenazine]
224.29 Å²		12.4 min				NC(=NCCCCCCN=C(N)N=C(N)Nc1ccc(Cl)cc1)N=C(N)Nc1ccc(Cl)cc1 [Chlorohexidine]
	222.47 Å²		11.9 min			COc1cc(C2c3cc4c(cc3C(OC3OC5COC(C)OC5C(O)C3O)C3COC(=O)C23)OCO4)cc(OC)c1O (stereo not drawn) [Etoposide_1]
	161.33 Å²		13.4 min			CC(C)(c1ccc(O)cc1)c1ccc(O)cc1 [Bisphenol A]
156.85 Å²	158.38 Å²	16.6 min	14.2 min			Cc1c(Cl)cccc1Nc1ccccc1C(=O)O [Tolfenamic acid]
191.81 Å²		15.6 min				Clc1ccc(COC(Cn2ccnc2)c2ccc(Cl)cc2Cl)c(Cl)c1 (stereo not drawn) [Miconazole]
171.87 Å²		9.39 min				COCCc1ccc(OCC(O)CNC(C)C)cc1 (stereo not drawn) [Metoprolol]
185.96 Å²		16.4 min				CCCCCCCCCCCC(=O)N(CCO)CCO [Lauryl diethanolamide]
154.52 Å²		13.2 min				O=C(Nc1ccccc1)NC1CCCCC1 [1-Cyclohexyl-3-phenylurea]

Compound	collision cross section [1, 3]	collision cross section [1, 4]	reversed-phase LC retention time [2, 3]	reversed-phase LC retention time [2, 4]	collision cross section [1, 5]	reversed-phase LC retention time [2, 5]
C#CCOS(=O)OC1CCCCC1Oc1ccc(C(C)(C)C)cc1 (stereo not drawn) [Propargite]	195.16 Å²		17.4 min			
CCCCC(CC)COC(=O)c1ccccc1C(=O)OCC(CC)CCCC (stereo not drawn) [Bis(2-ethylhexyl)phthalate]	212.9 Å²		19.1 min			
CC(C1CC1)C(O)(Cn1cncn1)c1ccc(Cl)cc1 (stereo not drawn) [Cyproconazole_2]	170.04 Å²		14.6 min			
CC(NC(C)(C)C)C(=O)c1cccc(Cl)c1 (stereo not drawn) [Bupropion]	158.6 Å²		10.3 min			
CCOCCN(C(=O)CCl)C(=C(C)C)c1ccccc1 [Pethoxamid]	166.72 Å²		14.9 min			
CN(C)c1ccc(C(=O)c2ccc(N(C)C)cc2)cc1 [Michler's ketone]	166.78 Å²		14.9 min			
C[C@@H]1NC(C)(C)CO[C@@]1(O)c1cccc(Cl)c1 [(S,S)-Hydroxybupropion]	159.75 Å²	159.63 Å²	9.89 min	13.5 min		
CCNc1nc(NCC)nc(SC)n1 [Simetryn]	149.02 Å²		11.6 min			
CCNc1nc(Cl)nc(NCC)n1 [Simazine]	142.98 Å²		11.5 min			
C[C@]12CCC(=O)C=C1CC[C@@H]1[C@@H]2CC[C@@]2(C)[C@H]1CC[C@]2(C)O [17alpha-Methyltestosterone]	178.22 Å²		14.7 min			
O=S(=O)(O)C(F)(F)C(F)(F)C(F)(F)C(F)(F)C(F)(F)C(F)(F)F [Perfluorohexanesulfonic acid]		150.32 Å²		13.9 min		
CC(C)(C)c1cc(-n2nc3ccc(Cl)cc3n2)c(O)c(C(C)(C)C)c1 [UV-327]		199.94 Å²		22 min		
CC(Cc1ccc(C(C)(C)C)cc1)CN1C[C@@H](C)O[C@@H](C)C1 (stereo partly drawn) [Fenpropimorph]	174.32 Å²		13.8 min			
Nc1c(Cl)c(F)nc(OCC(=O)O)c1Cl [Fluroxypyr]		139.78 Å²		7.61 min		
CC(COc1ccc(Oc2ccccc2)cc1)Oc1ccccn1 (stereo not drawn) [Pyriproxyfen]	184.89 Å²		16.9 min			
CON(C)C(=O)Nc1ccc(Br)cc1 [Metobromuron]	148.37 Å²		12.6 min			
Oc1ccc(Cl)cc1Cc1cc(Cl)ccc1O [Dichlorophen]		155.04 Å²		15.3 min		
CC(c1ccc(O)cc1)(c1ccc(O)cc1)c1ccc(O)cc1 [1,1,1-Tris(4-hydroxyphenyl)ethane]		183.23 Å²		12.4 min		
N#Cc1nn(-c2c(Cl)cc(C(F)(F)F)cc2Cl)c(N)c1SC(F)(F)F [Fipronil sulfide]		173.94 Å²		15.8 min		
CC(=O)CCCCn1c(=O)c2c(ncn2C)n(C)c1=O [Pentoxifylline]	160.14 Å²		9.78 min			
Oc1c(Br)cc(Br)cc1Br [2,4,6-Tribromophenol]		133.11 Å²		12.8 min		
O=S(=O)(O)C(F)(F)C(F)(F)C(F)(F)C(F)(F)F [Perfluorobutanesulfonic acid]		132.6 Å²		11.3 min		
CCCCc1c(C)nc(NCC)nc1OS(=O)(=O)N(C)C [Bupirimate]	176.08 Å²		14.7 min			
CCCOP(=O)(OCCC)OCCC [Tripropyl phosphate]	149 Å²		14.2 min			
CSc1nnc(C(C)(C)C)c(=O)n1N [Metribuzin]	147.77 Å²		11.4 min			
C/C=C1\N(C)C(C)CC1(c1ccccc1)c1ccccc1 (stereo not drawn) [EDDP]	166.21 Å²		11.5 min			
Oc1cc(Cl)ccc1Oc1ccc(Cl)cc1 [Diclosan]		152.57 Å²		16.2 min		
CC[C@H]1CCC[C@H](O[C@H]2CC[C@H](N(C)C)[C@@H](C)O2)[C@@H](C)C(=O)C2=C[C@@H]3[C@@H](C=C[C@@H]4C[C@@H](O[C@@H]5O[C@@H](C)[C@H](OC)[C@@H](OC)[C@H]5OC)C[C@@H]34)[C@@H]2CC(=O)O1 [Spinosyn A]	267.49 Å²		15.9 min			
